# Several values for one entry are separate records, joined by “and”; a condition that tells them apart may be missing. Equal entries are not always repeated. Where two headings read alike, the source gives them in different places.
# How the values were obtained:
# [1] = target: T1, Aβ1–42 (Homo sapiens, UniProt P05067); assay: Anti-Aβ1–42 oligomerization, multimeric detection system (MDS); assay type: biochemical; settings: for Aβ oligomerization reduction (relative amount of Aβ oligomers): vs negative control (Buffer + Aβ)
# T1 construct: Aβ1–42 for MDS (GenicBio Inc., Shanghai, China); purchased GenicBio Inc
# T1 sequence (P05067 672-713): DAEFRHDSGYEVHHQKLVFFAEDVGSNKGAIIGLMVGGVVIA
# Experimental: The anti-Aβ1–42 oligomerization and fibrilization activity of the extracts/bioactives were measured by Multiple Detection System (MDS) and ThT assay, respectively. Briefly, the extracts and phytocompounds were incubated with Aβ1–42 at RT for different time points (0 h, 2 h, and 4 h). The samples were incubated on an anti-β-amyloid pre-coated plate for 1 h at RT. An HRP-conjugated W0–2 monoclonal antibody was added, and the plate was kept at RT for 30 min. Later, TMB was added, and the plate was incubated for 15 min at RT. The absorbance was read at 450 nm using a microplate reader (Victor3, PerkinElmer, Shelton, CT, USA)
# [2] = Ferric reducing antioxidant potential (FRAP) assay; settings: 1 mg/mL
# Experimental: FRAP assay was used to assess the […] of the extracts and phytocompounds with slight modification in a previously reported method. For the assay, the extract (1 mg/mL) was incubated with 200 μL of FRAP reagent, and the reduction of ferric tripyridyltriazine was monitored at 593 nm (Multimode reader, Synergy-H1 BioTek, Agilent, USA). Ascorbic acid (2 μg/mL) was used as a positive control. FRAP values of the extracts and phytocompounds were calculated from the standard curve of FeSO4 (15–250 μM) and expressed as μM Fe^2+/g.
# [3] = test system: SH-SY5Y cells; assay: Mitochondrial membrane potential (ΔΨm) assay (TMRE); assay type: cell-based, Human; settings: 12 h pre-treatment, 200 μM H2O2 2 h
# Experimental: (§1) Human neuroblastoma SH-SY5Y cells (ATCC CRL-2266, Manassas, VA, USA) were maintained in Dulbecco’s modified Eagle’s medium (DMEM, Gibco) supplemented with 10% fetal bovine serum (FBS), 1% kanamycin, and 1% penicillin (Thermo Fisher Scientific, Waltham, MA, USA) at 37 °C with 5% CO2, and a 95% humidified atmosphere in the incubator. The experiments were executed at 80–90% cell confluency.
# The mitochondrial membrane potential was measured using the tetramethylrhodamine, methyl ester (TMRE) staining method. The cells (1 × 10^4 cells/well) were seeded in a 96-well sterile plate; after which, they were pre-treated with the extract for 12 h. The extracts and phytocompounds were removed, followed by a 2 h treatment with H2O2 (200 μM). A 1 μM amount of TMRE was added to the cells and incubated for 1 h at 37 °C. The fluorescence was assessed (Ex 549 nm, Ems 575 nm) using a microplate reader (Synergy-H1 BioTek, Agilent, USA). The ΔΨm was calculated as a percentage of the untreated control cells (100%) in triplicate measurements.
# [4] = test system: SH-SY5Y cell lysate; assay: Glutathione (GSH, GSSG) in cell lysate; assay type: cell-based, Human; settings: 10 μg/mL; 24 h pre-treatment, 6 h H2O2 100 μM
# Experimental: as §1
# (§2) The cells (5 × 10^4 cells/well) were seeded in a 6-well sterile plate and incubated for 18–24 h. After stabilization, cells were pre-treated with the extracts and phytocompounds for 24 h before 6 h incubation with H2O2 (100 μM). The culture media was removed, and the cells were washed with cold PBS (1X). The cells were placed on ice and incubated with pre-chilled RIPA buffer for 10 min. Transfer the lysate in microfuge tubes and centrifuge (Labogene 1730R, BMS, Paju-si, Republic of Korea) for 10 min at 20,000× g, 4 °C. The supernatant was collected and stored at −80 °C.
# The concentrations of GSH (reduced) and GSSG (oxidized) in the lysate were measured fluorometrically using a previously described and the fluorescence was recorded at 350/420 (Ex/Ems) in a microplate reader (Synergy-H1 BioTek, Agilent, Santa Clara, CA, USA).
# [5] = test system: SH-SY5Y neuroblastoma cell line; assay: Cell viability / cytotoxicity assay (WST-8); assay type: cell-based, Human; settings: 24 h treatment; 1, 10, 30 µg/mL
# Experimental: as §1
# The cells were seeded (1 × 10^4 cells/well) in 96-well sterile plates and pre-treated with various extract concentrations (1, 10, 30 µg/mL) for 24 h. The extracts and phytocompounds were removed and incubated for 2 h with 10% WST-8 reagent (Roche, Grenzach-Wyhlen, Germany) as described previously. The absorbance was determined at 450 nm in a multi-plate reader (Synergy-H1 BioTek, Agilent, USA). The percent cytotoxicity was calculated as:Cytotoxicity % = (Ac − At)/(Ac) × 100 where Ac = absorbance of the control cells, At = absorbance of the treated cells.
# The plot of percent cytotoxicity versus sample concentration was used to calculate the extract concentration that killed 50% of the cells (IC50).
# [6] = test system: H2O2-induced neuroblastoma SH-SY5Y cells; assay: Neuroprotection assay against H2O2-induced oxidative stress (WST-8); assay type: cell-based, Human
# Experimental: as §1
# The neuroprotective effect of extracts and phytocompounds on H2O2-induced oxidative stress in SH-SY5Y by a previously described method. The cells (1 × 10^4 cells/well) were seeded in a 96-well sterile plate. After stabilization, the cells were pre-treated with the extracts and phytocompounds for 24 h. The extracts and phytocompounds were removed and treated with H2O2 (100 μM) for 6 h. A solvent control, H2O2 alone, and extract alone treatments were also included. After incubation, the % cell viability was measured using WST-8 reagent in triplicate experiments.
# [7] = target: T1, Aβ1–42; assay: Anti-Aβ1–42 fibrilization, ThT assay; assay type: biochemical; settings: for Aβ fibrilization inhibition (ThT): samples 500 μg/mL, 37 °C 24 h
# Experimental: The anti-Aβ1–42 fibrilization activity of the extracts/bioactives was monitored using a ThT assay. The samples were incubated in the presence/absence of Aβ1–42 at 37 °C for 24 h. The samples were incubated with 100 μM ThT at 37 °C for 15 min. The fluorescence was monitored at Ex 450 nm/Ems 490 nm (Synergy-H1 BioTek, Agilent, Santa Clara, CA, USA). For the control, phenol red (50 μM) was used. The Aβ1–42 aggregation inhibition was calculated as follows:Percent Inhibition (%) = [(1 − Fi/Fc) × 100] where Fi and Fc are the fluorescence intensity with and without the inhibitors, respectively.
# [8] = test system: AChE; settings: cited from earlier work
# [9] = target: T2, Acetylcholinesterase (Electrophorus electricus, Type VI-S) (Electrophorus electricus, UniProt O42275); assay: biochemical; settings: for IC50: read-out: AChE IC50 (converted); for Type of Inhibition of AChE: Lineweaver–Burk plot, 100 and 200 μg/mL; for Vmax of AChE in presence of inhibitor: no inhibitor 2.975
# T2 construct: purchased Sigma-Aldrich
# T2 sequence (O42275 24-633): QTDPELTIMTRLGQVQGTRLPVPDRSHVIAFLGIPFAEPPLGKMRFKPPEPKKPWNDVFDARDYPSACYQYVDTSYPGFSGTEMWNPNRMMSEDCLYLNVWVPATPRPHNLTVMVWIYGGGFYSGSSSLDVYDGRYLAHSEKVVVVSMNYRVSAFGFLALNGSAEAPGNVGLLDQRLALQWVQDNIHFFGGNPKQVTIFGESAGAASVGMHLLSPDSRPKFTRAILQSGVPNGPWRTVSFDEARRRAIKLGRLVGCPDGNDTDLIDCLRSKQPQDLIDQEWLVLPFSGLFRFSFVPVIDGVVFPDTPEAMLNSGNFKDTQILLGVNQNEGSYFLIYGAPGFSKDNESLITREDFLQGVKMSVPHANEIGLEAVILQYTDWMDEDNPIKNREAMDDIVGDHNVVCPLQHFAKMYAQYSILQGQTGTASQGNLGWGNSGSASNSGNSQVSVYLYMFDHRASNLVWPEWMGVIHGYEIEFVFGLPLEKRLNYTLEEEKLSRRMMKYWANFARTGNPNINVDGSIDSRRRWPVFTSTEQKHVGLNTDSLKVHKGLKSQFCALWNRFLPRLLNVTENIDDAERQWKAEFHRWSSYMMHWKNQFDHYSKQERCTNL
# Experimental: The AChE activity was examined by slight modifications [23] in Ellman’s method [76]. The extracts and phytocompounds were incubated for 15 min with AChE and 10 mM ATCC at 37 °C. The reaction was stopped by DTNB (15 mM), and the absorbance was measured at 412 nm (Multi-mode plate reader, Synergy-H1 BioTek, Agilent, USA). […] The percent inhibition was calculated as:Percent Inhibition (I%) = [(Ao − Ac) − (Bi − Bc)]/(Ao − Ac) × 100 where Ao is the absorbance without inhibitor; Ac is the negative control without inhibitor; Bi is the absorbance with inhibitor; and Bc is the negative control with inhibitor. The IC50 values were calculated using GraphPad Prism 10. Lineweaver–Burk plot was used to prepare the inhibition curves (with and without extract/phytocompound) using GraphPad Prism 10. The kinetic parameters were calculated from a non-linear fit (Michaelis–Menten equation) in GraphPad Prism 10.
# Statistical analysis was established by a one-way ANOVA followed by Dunnett’s post hoc test. Data are registered as the mean ± SEM of three sets of experiments. […] The IC50 values were determined using non-linear regression. The Vmax and Km were calculated from a Michaelis–Menten plot drawn using a non-linear plot (GraphPad Prism 10). Lineweaver–Burk plots were drawn using linear regression analysis (GraphPad Prism 10). The Ki values were calculated from the formula IC50 = Ki (1 + [S]/Km).
# [10] = test system: H2O2-induced ROS production in SH-SY5Y cells; assay: Intracellular ROS measurement (H2DCFDA); assay type: cell-based, Human; settings: 12 h pre-treatment, H2O2 100 µM 2 h, H2O2 alone 156.96 ± 5.07%
# Experimental: as §1
# The cells (1 × 10^4 cells/well) were seeded in a 96-well sterile plate, after which they were pre-treated with the extract for 12 h. […] The fluorescence intensity (Ex 495 nm, Ems 520 nm) was measured by a microplate reader (Synergy-H1 BioTek, Agilent, USA). The ROS was calculated as a percentage of the untreated control cells (100%) in triplicate measurements.
# [11] = test system: SH-SY5Y cells lysate; assay: Malondialdehyde (MDA) in cell lysate (TBA:TCA); assay type: cell-based, Human; settings: 24 h pre-treatment, 6 h H2O2 100 μM
# Experimental: as §1, §2
# MDA levels were measured using TBA: TCA reagent as described previously. In the reaction, MDA reacts with two molecules of thiobarbituric acid (TBA) to give a pink pigment that absorbs at 532 nm. The standard curve of MDA (1–100 μM) was used to calculate lipid peroxidation in the lysate.
# [12] = cited from earlier work
# [13] = DPPH radical scavenging assay; settings: positive control at 10 μg/mL
# Experimental: DPPH radical scavenging capacity of the extracts and phytocompounds at 1 mg/mL was measured with slight modification. The absorbance was monitored at 515 nm (Multimode reader, Synergy-H1 BioTek, Agilent, Santa Clara, CA, USA) using ascorbic acid (0.1–10 μg/mL) as a standard. Radical scavenging activity (RSA) was calculated as:% RSA = (Ab − Ae/Ab) × 100 where Ab = absorbance of the blank and Ae = absorbance of the extract.
# [14] = ABTS radical scavenging assay; settings: positive control at 10 μg/mL
# [15] = mean of three experiments ± SEM
structure (smiles),measurement,setting,value
"C=C(C)[C@H]1CC[C@H](C)C(=O)C1 [DHC, cyclohexanone,2-methyl-5-(1-methylethenyl)-]",Aβ oligomerization reduction (relative amount of Aβ oligomers),[1]; 2 h incubation,non-significant
same,percent Aβ oligomerization inhibition,"[1]; MDS, Figure 3B, mean ± SEM n = 3",26.62 ± 8.62%
same,FRAP value,[2],45.22 ± 0.72 µM Fe^2+/g
same,MMP (% ΔΨm vs untreated cells),[3]; 0.1 µg/mL,74.94 ± 1.20%
same,MMP (% ΔΨm vs untreated cells),[3]; 1 µg/mL,79.26 ± 0.56%
same,MMP (% ΔΨm vs untreated cells),[3]; 10 µg/mL,85.21 ± 0.19%
same,MMP (% ΔΨm vs untreated cells),[3]; 30 µg/mL,86.91 ± 5.47%
same,GSSG levels,[4],substantial reduction
same,Cytotoxicity (cell viability) in SH-SY5Y,[5],No significant difference
same,cell viability change vs H2O2 control,[6]; all concentrations (0.1–30 µg/mL),non-significantly increased
same,Aβ fibrilization inhibition (ThT),[7],26.6% and 33.44 ± 3.43%
same,AChE inhibition,[8]; at 1 mg/mL,31.1%
same,IC50,[9]; [15],> 7870 µM and 7870 µM
same,IC50,[9]; stated as bound,> 6570 µM
same,ROS level (% of untreated cells),[10]; 10 µg/mL,107.37 ± 8.26%
same,ROS level (% of untreated cells),[10]; 30 µg/mL,96.73 ± 9.11%
same,MDA level,[11]; 0.1 µg/mL,1.79 µM
same,MDA level,[11]; 1 µg/mL,1.60 µM
same,MDA level,[11]; 10 μg/mL,1.45 µM
"O=S1(=O)OC(c2ccc(O)cc2)(c2ccc(O)cc2)c2ccccc21 [phenol red, reference compound]",inhibition at 50 µM,"[7]; positive control 50 μM, read-out: Aβ fibrilization inhibition (ThT)",60.3 ± 4.29%
"COc1ccc2c3c1O[C@H]1C[C@@H](O)C=C[C@@]31CCN(C)C2 [galantamine, reference compound]",AChE IC50,"[8]; previously reported value, no reference given",4.31 µg/mL
C=CCc1cc(OC)c2c(c1OC)OCO2 [apiole],Aβ oligomerization reduction (relative amount of Aβ oligomers),[1]; 2 h incubation,statistically significant
same,Aβ oligomerization reduction (relative amount of Aβ oligomers),[1]; 4 h incubation,statistically significant
same,FRAP value,[2],42.41 ± 3.54 µM Fe^2+/g
same,MMP (% ΔΨm vs untreated cells),[3]; 0.1 µg/mL,71.53 ± 0.37%
same,MMP (% ΔΨm vs untreated cells),[3]; 1–30 µg/mL,75 to 77%
same,BBB permeability,[12],lacks significant BBB permeability
same,Cytotoxicity (cell viability) in SH-SY5Y,[5],No significant difference
same,"% cell viability, H2O2-induced SH-SY5Y","[6]; 1–30 µg/mL, 12 h pre-treatment, 1 h H2O2 100 µM",~ 75%
same,Aβ fibrilization inhibition (ThT),[7],41.85 ± 1.73%
same,Ki,[9]; Ki,1720 µM
same,Ki,"[9]; Ki (inhibitor constant), AChE",1720 µM and 1710 µM
same,Type of Inhibition of AChE,[9],competitive inhibition
same,Type of Inhibition of AChE,[9]; listed as Apiole,Competitive
same,Vmax of AChE in presence of inhibitor,[9]; inhibitor 100 μg/mL,3.551 µmol/min/mg
same,Vmax of AChE in presence of inhibitor,[9]; inhibitor 200 μg/mL,3.712 µmol/min/mg
same,IC50,[9]; [15],1750 µM
same,IC50,[9]; molar equivalent of the μg/mL value,1740 µM
same,ROS level (% of untreated cells),[10]; 10 µg/mL,113.63 ± 6.25%
same,ROS level (% of untreated cells),[10]; 30 µg/mL,102.92 ± 9.11%
same,MDA level,[11]; 0.1 µg/mL,1.94 µM
same,MDA level,[11]; 1 and 10 µg/mL,~ 1.38 µM
"O=C1O[C@H]([C@@H](O)CO)C(O)=C1O [Ascorbic acid, ascorbic acid]",DPPH percent radical scavenging activity,[13],85.43 ± 1.02%
O=c1c(O)c(-c2ccc(O)c(O)c2)oc2cc(O)cc(O)c12 [quercetin],ABTS radical scavenging activity,[14],97.55 ± 0.05%

# Source: publication PMC11241255 (International Journal of Molecular Sciences, 2024)
